Patent US20200384003A1, “TRITERPENOID-CONTAINING PHARMACEUTICAL COMPOSITION AND USE THEREOF” (SHANGHAI LANMU CHEMICALS CO., LTD., priority 2017, published 2020)
Changes are numbered by the printed parent chain.

Experiments:
[1] = Pharmacokinetic study, drug in aqueous humor after eye glass cavity injection (Example 5); type: in vivo; details: SD rats, 5 μl injected into each glass cavity, detected 10 days after the surgery
Method: SD rats (about 10 weeks old, male or female) were anesthetized by intraperitoneal injection of pentobarbital sodium and pupil was dilated, then eye glass cavity injection surgery was performed. All animals were injected with the same kind of drugs in both eyes. The amount of drug injected into each glass cavity was 5 μl, and the number of test animals per drug formulation (Example 1, Example 2 and Comparative Example 1) was four, and the drug metabolism in the aqueous humor was detected 10 days after the surgery.

[2] = target: T1, mutated lens protein (αB-crystallin R120G) (Homo sapiens, UniProt P02511, R120G); assay: Intracellular mutated lens protein aggregation inhibition experiment in transfected HeLa cells (Example 21); type: cell-based; details: 10 μM, treated 3.5 hours, then 6.5 h normal medium, fewer + = better
T1 construct: expressed in transfected cells; host or cells: HeLa
T1 sequence (P02511 1-175 R120G): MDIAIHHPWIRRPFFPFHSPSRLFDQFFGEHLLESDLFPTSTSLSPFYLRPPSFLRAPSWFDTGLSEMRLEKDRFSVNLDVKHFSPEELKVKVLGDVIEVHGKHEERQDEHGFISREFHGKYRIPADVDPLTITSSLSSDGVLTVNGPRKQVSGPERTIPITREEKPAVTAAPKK
Method: In this example, apart of the specific compounds obtained in Example 19 and Example 20 were selected for intracellular mutated lens protein (αB-crystallin R120G) aggregation inhibition experiment (experimental method was described in Chinese patent CN201580057679). The aggregation inhibition activities of compound I and compound II in the present invention on lens protein mutants were evaluated to screen a compound which was effective in treating related disease such as cataract.
The tumor cell line HeLa was selected as a host cell transfected with the mutant lens protein (αB-crystallin […]) expression plasmid, the medium was DMEM with […], and the culture conditions were 37° C., saturated humidity and 5% carbon dioxide cell incubator. Mycoplasma was negative. The transfection process is that the appropriate number of HeLa cells were inoculated on the pre-coated slides. When fully adherent cells grew to about 75% cell density, the expression vector was transfected with liposome. After 4 hours of transfection, the medium was changed to normal medium. Then the HeLa cells were cultured in the cell incubator for 13 hours to induce the expression of exogenous mutant lens protein. After changing the medium, the replaced new medium contained various compounds of the formula I and formula II of the present invention to be tested (DMSO was used as solvent in all mother fluid), wherein the final concentration of each compound was 10 μM, the negative control was 1.5% DMSO solvent, and the positive control was lanosterol (10 μM). The HeLa cells were treated with the medium containing the test compound, 1.5% DMSO solvent and lanosterol for 3.5 hours, respectively, and the normal fresh medium containing no DMSO, test compound or lanosterol was exchanged and the cells were cultured for another 6.5 h, then Anti-p62 antibody and DAPI were used for routine cellular immunofluorescence detection. The field of vision of three positions per slide was randomly selected, the ratio of cells containing aggregated crystalline proteins (lens protein aggregates) was calculated, and the effect of each test compound on intracellular aggregation of mutant lens proteins was finally determined, the results were shown in Table 19.

[3] = Heat stability at 80° C. versus 4° C., HPLC and appearance (Example 18); type: physicochemical; details: for content after heat storage / initial experiment purity: HPLC; for initial experiment purity: stored at 4° C.
Method: The heatl stabilities of inotodiol and trametenolic acid were tested, and lanosterol was used as a reference at the same time.

[4] = target: T2, wild-type αB lens protein aggregate (WT αB) (Homo sapiens, UniProt P02511); assay: Dissolution of lens protein aggregates, ThT fluorescence (Example 22); type: biochemical; details: liposome form, final concentration 125 μM, 24 hours, versus blank liposomes (FIG. 33)
T2 sequence (P02511 1-175): T1 sequence (P02511 1-175 R120G) with G120R
Method: The experimental method was as follows: Inotodiol was used as test compound, and its dissolution effect on wild-type αB lens protein aggregate (WT αB) was measured, and lanosterol was used as positive control.
In the present example, the formulations of pharmaceutical composition in the test group and the control group were liposome, wherein the component of the formulation of test group was 40 mg of DPPC, 10 mg of cholesterol and 10 mg of test compound; the component of the formulation of positive control group was 40 mg of DPPC, 10 mg of cholesterol and 10 mg of lanosterol; the component of formulation of the blank control group was 40 mg of DPPC and 10 mg of cholesterol. […]
The analysis of compound concentration in the liposome formulation: The obtained liposome solution was demulsificated with 4 to 5 volumes of methanol solution to afford clear solution. The concentration of compound in the liposome was determined by HPLC method, and the chromatographic conditions are as follows. […] After the comparative analysis, the concentration of corresponding compound in the liposome preparation was determined.
The induction of protein aggregates is as follows. […] After the treatment, ThT fluorescence was used to detect the effect of different compounds on αB lens protein aggregates.

[5] = test system: diabetic metabolite cataract; assay: Therapeutic effect on diabetic metabolite cataract, streptozotocin model (Example 11); type: in vivo, SD rats; details: right eye of diabetic rat, pictures before and after 2 months of treatment (FIG. 25-29)
cataract = details: sustained-release lanosterol drug, dogs; cited from earlier work
traumatic cataract = assay: Therapeutic effect of eye ointment on traumatic cataract (Example 10); type: in vivo, SD rats; details: pictures before and after administration (FIG. 22-24, Table 10)
cataract lens = details: direct administration to the eyeball or lens, primates; cited from earlier work
[6] = 80° C. for 1 week, compared with 4° C.
[7] = 80° C. for 2 weeks, compared with 4° C.

Structure (SMILES) | decrease of drug concentration in aqueous humor compared with initial concentration immediately after injection [1] | Inhibitory effect (percentage of cells containing aggregated proteins) [2] | appearance after heat storage [3, 6] | appearance after heat storage [3, 7] | content after heat storage ([3]; 80° C. for 1 day) [%] | content after heat storage ([3]; 80° C. for 2 day) [%] | content after heat storage ([3]; 80° C. for 3 day) [%] | initial experiment purity [3] [%] | ThT fluorescence signal of αB lens protein aggregates [4] | turbid area of lens / course of cataract after administration [5] | purity after heat storage ([3]; 80° C. for 2 weeks) [%] | appearance after heat storage ([3]; 80° C. for 1 day) | cataract treatment effect (cataract) | cortical turbidity area of eyes with traumatic cataract, transparency after administration (traumatic cataract) | transparency of cataract lens (cataract lens)
CC(C)=CCC(O)[C@@H](C)[C@H]1CC[C@@]2(C)C3=C(CC[C@]12C)[C@@]1(C)CC[C@H](O)C(C)(C)C1CC3 (stereo partly drawn) [Inotodiol, inotodiol] | 11%±2.3% | + (<30% of the cells in the field of vision contained protein aggregates) | did not change | began to turn yellow | 88 | 68 | 67 | 94 | significantly reduce the ThT fluorescence signal |  |  |  |  |  | 
CC(C)=CCC[C@@H](C)[C@H]1CC[C@@]2(C)C3=C(CC[C@]12C)[C@@]1(C)CC[C@H](O)C(C)(C)[C@@H]1CC3 [lanosterol, reference compound] | 82%±14.7% | +++ (>60% of the cells in the field of vision contain protein aggregates) | one third of the lanosterol turned yellow | All lanosterol turned yellow | 73 | 48 | 44 | 96 | increased the ThT fluorescence signal | increased | 32 | the powder became hard and formed into a large piece | has a cataract treatment effect on dogs only when combined with high-frequency intravitreal injection | could restore transparency of lens with slight turbidity, but no obvious reversal of the disease has been observed in severe cataract | does not restore or improve the transparency of cataract lens in primates
